In patent publication US10143718B2, “Covalent inhibitors of dual oxidase 1 (DUOX 1)” (The University of Vermont and State Agricultural College, priority 2015, dated 2018):
Entries after “also recorded” stand apart in the source; their conditions may differ.

How the values were obtained:
DUOX1 [1] = molecular target: T1, DUOX1 (Homo sapiens, UniProt Q9NRD9); assay: ARP labeling of DUOX1 in HBE1 cells (biotin tag, avidin purification, western blot); type: binding; settings: 0, 10, or 30 micromolar for 30 minutes
T1 construct: endogenous in cells; host or cells: HBE1 (immortalized human bronchial epithelial cells)
T1 sequence (Q9NRD9 22-1551): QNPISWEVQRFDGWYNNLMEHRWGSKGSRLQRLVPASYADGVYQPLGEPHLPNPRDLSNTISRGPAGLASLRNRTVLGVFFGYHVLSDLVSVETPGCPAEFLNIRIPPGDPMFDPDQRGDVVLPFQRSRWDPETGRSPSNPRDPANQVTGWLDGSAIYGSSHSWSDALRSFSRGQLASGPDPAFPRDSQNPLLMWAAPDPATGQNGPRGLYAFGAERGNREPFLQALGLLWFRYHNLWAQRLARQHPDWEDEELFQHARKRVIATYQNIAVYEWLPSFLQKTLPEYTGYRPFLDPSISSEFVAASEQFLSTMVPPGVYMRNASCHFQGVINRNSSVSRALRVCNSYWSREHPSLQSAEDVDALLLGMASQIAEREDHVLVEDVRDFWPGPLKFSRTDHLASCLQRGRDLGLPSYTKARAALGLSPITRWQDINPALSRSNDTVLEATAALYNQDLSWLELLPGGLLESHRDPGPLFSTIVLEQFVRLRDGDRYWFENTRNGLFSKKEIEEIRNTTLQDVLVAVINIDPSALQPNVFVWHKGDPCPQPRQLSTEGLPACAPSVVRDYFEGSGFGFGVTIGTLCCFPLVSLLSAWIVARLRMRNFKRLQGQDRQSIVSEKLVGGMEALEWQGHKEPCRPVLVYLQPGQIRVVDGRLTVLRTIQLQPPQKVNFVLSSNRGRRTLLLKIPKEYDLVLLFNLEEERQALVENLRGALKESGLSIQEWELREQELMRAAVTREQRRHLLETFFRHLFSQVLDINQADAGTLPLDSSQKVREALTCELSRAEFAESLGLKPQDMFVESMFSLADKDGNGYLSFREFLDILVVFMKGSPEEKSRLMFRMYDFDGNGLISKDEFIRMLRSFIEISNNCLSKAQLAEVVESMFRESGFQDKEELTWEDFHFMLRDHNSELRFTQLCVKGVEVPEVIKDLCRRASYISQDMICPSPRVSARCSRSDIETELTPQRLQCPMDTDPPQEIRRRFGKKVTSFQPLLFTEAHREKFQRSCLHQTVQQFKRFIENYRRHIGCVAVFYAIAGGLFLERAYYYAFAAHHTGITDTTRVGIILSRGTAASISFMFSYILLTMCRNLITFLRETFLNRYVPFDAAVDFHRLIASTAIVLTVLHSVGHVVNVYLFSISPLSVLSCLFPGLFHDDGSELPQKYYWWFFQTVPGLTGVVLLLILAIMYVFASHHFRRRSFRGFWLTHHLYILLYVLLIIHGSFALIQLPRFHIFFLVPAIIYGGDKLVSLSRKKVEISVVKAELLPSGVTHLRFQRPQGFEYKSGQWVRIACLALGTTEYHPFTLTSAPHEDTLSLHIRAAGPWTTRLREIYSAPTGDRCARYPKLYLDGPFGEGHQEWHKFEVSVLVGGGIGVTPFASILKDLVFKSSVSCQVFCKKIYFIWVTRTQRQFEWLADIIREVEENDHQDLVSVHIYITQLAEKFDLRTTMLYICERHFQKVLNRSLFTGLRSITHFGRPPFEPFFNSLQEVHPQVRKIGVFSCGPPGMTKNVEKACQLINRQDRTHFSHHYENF
Text: Since these various electrophiles act primarily by targeting susceptible cysteine residues by Michael addition, it was believed that they may directly target DUOX1 protein on one of its accessible cysteine residues within its extracellular peroxidase homology (PHD) domain. […] Moreover, since the PHD domain is unique to DUOX and not present in other NADPH oxidase isoforms, this targeting approach would avoid non-selective actions on these other isoforms, a common problem with most NADPH oxidase inhibitors currently in development. To determine whether acrolein-mediated inhibition of DUOX1 activity (FIG. 4) was associated with direct targeting of DUOX1 protein, HBE1 cells were treated with 0, 10, or 30 micromolar acrolein for 30 minutes and derivatized cell lysates with aldehyde reactive probe (ARP; Pierce), which converts acrolein-induced Michael adducts to induce a biotin tag. Biotin-tagged proteins were subsequently purified by avidin chromatography and collected biotin-tagged proteins (eluates) were then analyzed by 10% SDS-PAGE and western blotting with an alpha-DUOX1 antibody. Whole cell lysate were analyzed accordingly as loading controls.

DUOX1 [2] = molecular target: T1, DUOX1; assay: Extracellular H2O2 production by HBE1 cells as a measure of DUOX1 activation (lactoperoxidase/tyrosine, HPLC); type: cell-based; settings: for ATP-induced H2O2 production: electrophile 30 min prior to ATP stimulation, media collected after 10 min, 1-30 micromolar for food-derived electrophiles
Text: (§1) Based on identifying the involvement of Ca^2+-dependent DUOX1 activation and subsequent EGFR activation in allergen-induced IL-33 secretion from epithelial cells), the impact of acrolein exposure on allergen-induced Ca^2+ increases, extracellular H2O2 production (as a measure of DUOX1 activation) and EGFR tyrosine phosphorylation (as an indicator of EGFR activation) were studied.
Preliminary studies of DUOX1 targeting by electrophiles. Acrolein (2,3-propenal) is a highly reactive electrophile and a well-recognized environmental pollutant. In this example, other electrophilic compounds with similar chemical reactivity were determined to be capable of inhibiting allergen-induced DUOX1 activation. These studies were performed using immortalized human bronchoepithelial cells (HBE1) which were cultured and exposed to different electrophiles at various doses for 30 min prior to cell stimulation with HDM or with ATP (a known activator of DUOX1). Conditioned culture media was collected 10 min after cell stimulation and mixed for 15 min with 10 micrograms/mL lactoperoxidase (Sigma) and 1 mM tyrosine (Gibco), which results in formation of fluorescent dityrosine product as a function of H2O2 concentration, and was analyzed by HPLC with fluorescence detection and compared with exogenous standards based on similarly treated stock solutions of H2O2. The resulting data were corrected for basal H2O2 production by unstimulated cells and ATP-dependent H2O2 production in the presence of electrophiles were expressed relative to that by ATP alone (which was set at 100%).

[3] = tested on: mouse tracheal epithelial cells; assay: Allergen-induced cytokine secretion from cultured mouse tracheal epithelial cells; type: cell-based; settings: for HDM-induced IL-33 secretion (culture media): mouse tracheal epithelial cells, pretreated 30 minutes, then HDM for 2 hrs
Method: (§2) Cells were pretreated with acrolein (ACR), cinnamaldehyde (CIN), curcumin (Curc) or sulforaphane (SFN) for 30 minutes and then stimulated with HDM for 2 hrs. IL-33 was measured in culture media.

[4] = tested on: allergen-mediated Ca^2+ increases; assay: Allergen-induced Ca2+ increases in epithelial cells; type: cell-based; settings: non-toxic concentrations (3-30 micromolar)
Text: as §1

[5] = tested on: human bronchial epithelial cell line HBE1; assay: Allergen-induced cytokine secretion from HBE1 cells; type: cell-based; settings: acrolein pretreatment
Method: as §2

cellular GSH = assay: Cellular GSH depletion; type: cell-based; settings: at concentrations inhibiting allergen-induced IL-33 secretion and H2O2 production
[6] = tested on: allergic inflammation and mucus metaplasia; assay: Acrolein exposure in a mouse model of allergic asthma; type: in vivo; settings: non-toxic doses of acrolein
EGFR = assay: Allergen-induced EGFR tyrosine phosphorylation (EGFR activation); type: cell-based; settings: non-toxic concentrations (3-30 micromolar)
Text: as §1

[7] = tested on: innate airway responses to HDM; assay: Acrolein inhalation, then allergen challenge; BAL cytokines analyzed; type: in vivo; settings: mice; acrolein 5 ppm, 4 hrs; then HDM (50 micrograms) or Alternaria alternata challenge; BAL 1 hour later
Method: Electrophilic compounds can suppress allergic inflammation and innate allergen responses. […] Mice were exposed to acrolein (5 ppm; 4 hrs, and subsequently challenged with HDM (50 micrograms), and BAL cytokines were analyzed 1 hour later.

| Structure (SMILES) | ATP-induced H2O2 production (DUOX1 [2]) | HDM-induced IL-33 secretion (culture media) [3] | other results |
| --- | --- | --- | --- |
| C=CC=O [acrolein, 2,3-propenal] | dose-dependent inhibition | inhibited HDM-induced IL-33 secretion | ARP labeling of DUOX1 (direct adduct with DUOX1) (DUOX1 [1]): induced dose-dependent ARP labeling of DUOX1; allergen-induced extracellular H2O2 production (DUOX1 [2]; non-toxic concentrations (3-30 micromolar)): markedly suppressed; also recorded: inhibits allergen-induced H2O2 production; allergen-induced secretion of IL-33, IL-1α or IL-17E ([3]; cultured tracheal epithelial cells from mice, acrolein pretreatment): inhibits allergen-induced secretion of IL-33, IL-1α or IL-17E in a dose-dependent manner; allergen-mediated Ca^2+ increases [4]: did not affect allergen-mediated Ca^2+ increases; allergen-induced secretion of IL-33, IL-1α or IL-17E [5]: inhibits allergen-induced secretion of IL-33, IL-1α or IL-17E in a dose-dependent manner; cellular GSH depletion (cellular GSH): occurred in the absence of cellular GSH depletion; allergic inflammation and mucus metaplasia [6]: dramatically suppress allergic inflammation and mucus metaplasia; allergen-induced EGFR autophosphorylation (EGFR): markedly suppressed allergen-induced EGFR autophosphorylation; production of IL-33, IL-1α or IL-17E (BAL cytokines) [7]: dramatically minimized production of IL-33, IL-1α or IL-17E |
| O=C/C=C/c1ccccc1 [cinnamaldehyde, (2E)-3-phenylprop-2-enal] | capable of inhibiting ATP-mediated H2O2 production; also recorded: dose-dependent inhibition | inhibited HDM-induced IL-33 secretion |  |
| COc1cc(/C=C/C(=O)CC(=O)/C=C/c2ccc(O)c(OC)c2)ccc1O [curcumin, (1E,6E)-1,7-Bis(4-hydroxy-3-methoxyphenyl)-1,6-heptadiene-3,5-dione] | capable of inhibiting ATP-mediated H2O2 production | inhibited HDM-induced IL-33 secretion |  |
| C=CS(=O)(=O)Oc1ccccc1 [phenyl vinyl sulfonate] | dose-dependent inhibition |  |  |
| C=CS(=O)(=O)c1ccccc1 [phenyl vinyl sulfone] | Inhibitory effects |  |  |
| C[S+]([O-])CCCCN=C=S (stereo not shown) [sulforaphane, 1-Isothiocyanato-4-methylsulfinylbutane] | capable of inhibiting ATP-mediated H2O2 production; also recorded: dose-dependent inhibition | inhibited HDM-induced IL-33 secretion |  |
